19 compounds from ChEMBL document CHEMBL5360622, “Leucettinibs, a Class of DYRK/CLK Kinase Inhibitors Inspired by the Marine Sponge Natural Product Leucettamine B” (J Med Chem, 2023) can be followed below.

pIC50: −log10 of the molar value.

The pIC50 is the negative decadic logarithm of the IC50, by convention in mol/L. Higher therefore signals a low IC50.

Assay [1] concerns the target T1, Dual specificity tyrosine-phosphorylation-regulated kinase 4 (Homo sapiens, UniProt Q9NR20).
T1 sequence (Q9NR20 whole entry): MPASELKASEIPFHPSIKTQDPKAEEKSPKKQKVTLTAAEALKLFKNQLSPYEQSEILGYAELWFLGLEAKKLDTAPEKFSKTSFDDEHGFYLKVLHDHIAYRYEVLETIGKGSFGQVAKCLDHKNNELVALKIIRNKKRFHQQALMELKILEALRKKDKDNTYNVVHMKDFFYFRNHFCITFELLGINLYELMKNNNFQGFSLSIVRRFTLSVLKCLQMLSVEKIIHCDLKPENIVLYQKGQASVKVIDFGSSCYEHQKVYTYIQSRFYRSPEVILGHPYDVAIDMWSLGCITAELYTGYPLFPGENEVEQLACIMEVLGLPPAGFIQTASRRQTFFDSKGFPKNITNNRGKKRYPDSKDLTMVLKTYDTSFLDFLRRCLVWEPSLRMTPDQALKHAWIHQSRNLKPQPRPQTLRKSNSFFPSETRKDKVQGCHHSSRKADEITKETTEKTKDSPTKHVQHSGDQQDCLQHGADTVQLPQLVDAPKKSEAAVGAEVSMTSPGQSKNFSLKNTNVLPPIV

Assay [2] deals with Casein kinase I isoform epsilon (Homo sapiens, UniProt P49674).
In assay [3] the target is Dual specificity protein kinase CLK2 (Homo sapiens, UniProt P49760).
The target of assay [4] is Glycogen synthase kinase-3 beta (Homo sapiens, UniProt P49841). The class given is cell-based, Sf9.
The target in assay [5] is T2, Dual specificity tyrosine-phosphorylation-regulated kinase 3 (Homo sapiens, UniProt O43781).
T2 sequence (O43781 whole entry): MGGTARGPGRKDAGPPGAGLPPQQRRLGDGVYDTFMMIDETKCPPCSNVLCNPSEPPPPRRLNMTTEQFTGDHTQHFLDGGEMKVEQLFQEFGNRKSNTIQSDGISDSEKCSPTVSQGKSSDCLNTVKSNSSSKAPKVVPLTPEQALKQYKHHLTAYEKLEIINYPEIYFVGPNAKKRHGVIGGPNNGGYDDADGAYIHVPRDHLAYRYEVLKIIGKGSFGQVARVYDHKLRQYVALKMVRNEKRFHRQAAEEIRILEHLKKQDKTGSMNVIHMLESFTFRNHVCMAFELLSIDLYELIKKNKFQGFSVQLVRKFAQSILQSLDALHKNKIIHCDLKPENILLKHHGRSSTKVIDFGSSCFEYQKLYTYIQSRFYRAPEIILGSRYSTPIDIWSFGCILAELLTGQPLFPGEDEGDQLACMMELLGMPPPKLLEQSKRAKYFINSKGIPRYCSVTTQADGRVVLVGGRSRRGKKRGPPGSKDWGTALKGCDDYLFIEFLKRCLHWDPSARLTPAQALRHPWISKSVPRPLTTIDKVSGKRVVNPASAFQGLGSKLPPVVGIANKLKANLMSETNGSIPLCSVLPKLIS

Assay [6] concerns the target T3, Dual specificity tyrosine-phosphorylation-regulated kinase 2 (Homo sapiens, UniProt Q92630).
T3 sequence (Q92630 whole entry): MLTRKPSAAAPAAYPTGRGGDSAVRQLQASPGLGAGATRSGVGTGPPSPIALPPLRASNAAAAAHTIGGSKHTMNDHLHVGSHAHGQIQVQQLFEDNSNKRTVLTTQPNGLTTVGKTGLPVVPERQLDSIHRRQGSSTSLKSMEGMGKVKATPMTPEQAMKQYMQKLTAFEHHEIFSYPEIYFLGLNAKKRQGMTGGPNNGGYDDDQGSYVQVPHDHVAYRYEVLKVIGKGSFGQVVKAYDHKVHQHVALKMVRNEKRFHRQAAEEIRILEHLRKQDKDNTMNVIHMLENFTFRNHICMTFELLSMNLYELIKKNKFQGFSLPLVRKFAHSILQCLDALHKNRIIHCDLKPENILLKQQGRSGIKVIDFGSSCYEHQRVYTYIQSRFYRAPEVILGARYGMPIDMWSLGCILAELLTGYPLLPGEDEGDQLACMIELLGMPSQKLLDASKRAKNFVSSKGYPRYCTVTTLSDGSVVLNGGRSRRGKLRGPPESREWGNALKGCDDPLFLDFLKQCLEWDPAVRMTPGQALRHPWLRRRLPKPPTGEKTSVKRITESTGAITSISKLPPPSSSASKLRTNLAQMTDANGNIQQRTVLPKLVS

The target in assay [7] is Cyclin-dependent kinase 5/CDK5 activator 1 (Homo sapiens, UniProt Q00535). The class given is cell-based, Sf9.
In assay [8] the target is Dual specificity protein kinase CLK3 (Homo sapiens, UniProt P49761). The class given is cell-based, Sf9.
Assay [9] concerns the target Dual specificity protein kinase CLK4 (Homo sapiens, UniProt Q9HAZ1).

Chain of Dual specificity protein kinase CLK4 (Q9HAZ1 whole entry): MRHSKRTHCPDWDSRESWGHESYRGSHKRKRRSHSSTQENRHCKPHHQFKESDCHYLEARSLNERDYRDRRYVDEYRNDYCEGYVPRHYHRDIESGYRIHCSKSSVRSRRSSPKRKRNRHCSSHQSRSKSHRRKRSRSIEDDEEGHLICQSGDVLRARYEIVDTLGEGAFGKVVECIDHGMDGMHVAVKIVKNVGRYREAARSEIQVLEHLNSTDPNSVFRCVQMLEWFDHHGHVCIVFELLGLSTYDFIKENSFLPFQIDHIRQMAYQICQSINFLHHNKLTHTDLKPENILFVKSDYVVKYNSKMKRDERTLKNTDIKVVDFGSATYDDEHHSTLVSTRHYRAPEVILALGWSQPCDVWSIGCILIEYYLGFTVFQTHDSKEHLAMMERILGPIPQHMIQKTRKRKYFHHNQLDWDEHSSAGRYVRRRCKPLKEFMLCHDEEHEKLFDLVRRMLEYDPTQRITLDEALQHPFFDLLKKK
Chain of Dual specificity protein kinase CLK2 (P49760 whole entry): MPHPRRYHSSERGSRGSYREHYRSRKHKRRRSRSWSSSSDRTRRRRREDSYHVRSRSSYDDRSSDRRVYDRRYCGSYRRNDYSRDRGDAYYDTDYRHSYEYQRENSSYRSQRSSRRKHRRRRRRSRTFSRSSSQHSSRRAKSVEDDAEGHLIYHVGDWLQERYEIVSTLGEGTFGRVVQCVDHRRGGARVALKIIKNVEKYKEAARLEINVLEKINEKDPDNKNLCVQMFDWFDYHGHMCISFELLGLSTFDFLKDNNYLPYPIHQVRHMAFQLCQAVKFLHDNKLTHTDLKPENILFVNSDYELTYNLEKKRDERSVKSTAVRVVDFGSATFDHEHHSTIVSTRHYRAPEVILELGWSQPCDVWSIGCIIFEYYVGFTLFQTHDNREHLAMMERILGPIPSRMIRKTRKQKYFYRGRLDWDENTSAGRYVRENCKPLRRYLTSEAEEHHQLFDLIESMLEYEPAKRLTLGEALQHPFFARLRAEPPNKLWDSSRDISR
Chain of Dual specificity protein kinase CLK3 (P49761 whole entry): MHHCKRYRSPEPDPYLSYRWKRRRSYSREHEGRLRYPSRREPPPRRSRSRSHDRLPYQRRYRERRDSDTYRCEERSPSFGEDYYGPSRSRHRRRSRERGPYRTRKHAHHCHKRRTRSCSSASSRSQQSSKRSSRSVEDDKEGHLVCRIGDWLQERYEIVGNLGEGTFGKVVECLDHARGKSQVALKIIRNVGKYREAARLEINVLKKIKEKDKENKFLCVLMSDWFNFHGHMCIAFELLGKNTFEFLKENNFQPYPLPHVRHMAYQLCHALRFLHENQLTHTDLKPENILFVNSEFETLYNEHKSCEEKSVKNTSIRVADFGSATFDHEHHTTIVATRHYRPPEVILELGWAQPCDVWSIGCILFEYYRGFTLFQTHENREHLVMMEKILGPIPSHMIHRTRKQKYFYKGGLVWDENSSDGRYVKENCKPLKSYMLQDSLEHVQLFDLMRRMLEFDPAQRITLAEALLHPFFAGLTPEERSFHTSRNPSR
Chain of Glycogen synthase kinase-3 beta (P49841 whole entry): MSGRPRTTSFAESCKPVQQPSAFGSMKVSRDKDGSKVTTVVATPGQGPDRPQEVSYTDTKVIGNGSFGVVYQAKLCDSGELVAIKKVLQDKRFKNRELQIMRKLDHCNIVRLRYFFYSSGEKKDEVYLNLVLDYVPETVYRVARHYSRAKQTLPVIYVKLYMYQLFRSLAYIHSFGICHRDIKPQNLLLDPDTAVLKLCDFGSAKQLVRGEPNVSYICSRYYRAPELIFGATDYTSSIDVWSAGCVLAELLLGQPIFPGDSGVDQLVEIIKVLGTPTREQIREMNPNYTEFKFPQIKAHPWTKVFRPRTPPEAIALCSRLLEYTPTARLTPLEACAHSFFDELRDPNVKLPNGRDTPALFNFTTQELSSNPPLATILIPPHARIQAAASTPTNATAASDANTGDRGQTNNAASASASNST
Chain of Casein kinase I isoform epsilon (P49674 whole entry, canonical isoform): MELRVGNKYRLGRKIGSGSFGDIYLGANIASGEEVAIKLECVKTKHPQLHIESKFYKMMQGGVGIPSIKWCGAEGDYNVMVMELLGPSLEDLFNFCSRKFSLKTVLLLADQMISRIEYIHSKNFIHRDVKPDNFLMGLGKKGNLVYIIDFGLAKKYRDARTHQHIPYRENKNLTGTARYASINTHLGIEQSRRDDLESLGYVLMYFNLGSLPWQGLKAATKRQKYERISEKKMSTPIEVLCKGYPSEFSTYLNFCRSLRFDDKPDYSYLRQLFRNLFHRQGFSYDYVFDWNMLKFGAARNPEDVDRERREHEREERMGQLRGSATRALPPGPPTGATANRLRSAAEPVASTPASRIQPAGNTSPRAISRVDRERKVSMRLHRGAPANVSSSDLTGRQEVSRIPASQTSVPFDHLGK
Chain of Cyclin-dependent kinase 5/CDK5 activator 1 (Q00535 whole entry): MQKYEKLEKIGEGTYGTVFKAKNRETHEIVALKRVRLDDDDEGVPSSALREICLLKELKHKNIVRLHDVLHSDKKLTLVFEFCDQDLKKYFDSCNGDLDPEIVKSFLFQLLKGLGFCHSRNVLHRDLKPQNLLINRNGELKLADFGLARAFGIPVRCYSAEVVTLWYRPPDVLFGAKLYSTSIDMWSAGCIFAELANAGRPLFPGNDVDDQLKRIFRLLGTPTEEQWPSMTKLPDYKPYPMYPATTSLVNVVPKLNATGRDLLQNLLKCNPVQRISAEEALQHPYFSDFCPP
Chain of Cyclin-dependent kinase 5/CDK5 activator 1 (Q15078 whole entry, further chain): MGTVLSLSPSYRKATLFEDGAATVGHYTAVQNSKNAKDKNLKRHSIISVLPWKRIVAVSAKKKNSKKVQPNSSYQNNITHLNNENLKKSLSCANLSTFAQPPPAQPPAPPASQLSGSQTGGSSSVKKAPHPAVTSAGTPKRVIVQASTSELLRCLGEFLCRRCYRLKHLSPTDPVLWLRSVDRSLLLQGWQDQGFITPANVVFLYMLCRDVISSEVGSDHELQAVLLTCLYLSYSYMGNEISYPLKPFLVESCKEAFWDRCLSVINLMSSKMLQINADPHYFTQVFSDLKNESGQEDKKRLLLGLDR

For the compound `O=C1NC(N[C@H]2CCCOC2)=N/C1=C\c1ccc2ncsc2c1`, the pIC50 was 6.24 in assay [1]; less than 5.00 in assay [2]; 6.79 in assay [3]; less than 5.00 in assay [4]; 6.21 in [5]; 6.96 in assay [6]. Moreover, the results for the pIC50 in assay [7] and in assay [8] were 5.23 and 6.92, respectively.
Regarding `O=C1NC(NCC(O)C2CCCCC2)=N/C1=C\c1ccc2ncsc2c1` (racemic), the pIC50 is 6.50 in assay [1]; 5.16 in assay [2]; 7.34 in assay [3]; 5.51 in assay [4]; 6.45 in assay [5]; 5.96 in assay [6]. The pIC50 is less than 5.00 in assay [7] and 6.52 in assay [8].
For `O=C1NC(NC2CCC(F)(F)C2)=N/C1=C\c1ccc2ncsc2c1` (racemic), the pIC50 in assay [1] is 6.49; in [2] it was less than 5.00; in assay [3] it was 7.41; in assay [4], 5.33; in [5], 6.52; in assay [6], 6.41. For the same compound, the pIC50 in assay [7] is 5.26; in [8], 6.76.
As to `O=C1NC(N[C@@H]2CCCOC2)=N/C1=C\c1ccc2ncsc2c1`, the pIC50 in assay [1] was 5.73; in [2] it was less than 5.00; in [3], 6.63; in assay [4] it was 5.04; in [5] it was 5.79; in [6], 5.93. For the same compound, the pIC50 in assay [7] was less than 5.00; in assay [8] it was 6.22.
For `O=C1NC(NC2CCCSC2)=N/C1=C\c1ccc2ncsc2c1` (racemic), the pIC50 is 6.61 in assay [1]; less than 5.00 in [2]; 7.43 in [3]; 5.14 in assay [4]; 6.47 in assay [5]; 6.91 in assay [6]. Further, the pIC50 in [7] is 5.60; in assay [8], 6.97.
Consider `CC1(NC2=N/C(=C\c3ccc4ncsc4c3)C(=O)N2)CCNC1=O` (racemic), for which the pIC50 in assay [1] is 6.23; in assay [2] it was less than 5.00; in [3], 7.25; in assay [4] it was 5.20; in assay [5], 6.23; in assay [6], 6.72. Moreover, the results for the pIC50 in assay [7] and in assay [8] were less than 5.00 and 6.27, respectively.
On to `O=C1NC(NC2CC3CCC2C3)=N/C1=C\c1ccc2ncsc2c1` (racemic), for which the pIC50 in assay [1] was 6.59; in assay [2] it was less than 5.00; in assay [3] it was 6.90; in assay [4], 5.49; in assay [5], 6.47; in assay [6], 6.62. For the same compound, the pIC50 in assay [7] is less than 5.00; in [8], 6.84.
Turning to `O=C1NC(NC(CO)C2CCCCC2)=N/C1=C\c1ccc2ncsc2c1` (racemic), the pIC50 was 6.39 in assay [1]; less than 5.00 in [2]; 7.10 in assay [3]; 5.38 in [4]; 6.16 in assay [5]; 5.86 in assay [6]. The pIC50 in [7] was less than 5.00; in assay [8], 5.96.
In the case of `COC(CNC1=N/C(=C\c2ccc3ncsc3c2)C(=O)N1)c1ccccc1` (racemic), the pIC50 in assay [1] was 5.81; in assay [2] it was less than 5.00; in [3], 6.83; in [4], 5.37; in assay [5] it was 5.82; in assay [6] it was 6.45. Moreover, the results for the pIC50 in assay [7] and in assay [8] were less than 5.00 and 6.57, respectively.
`O=C1NC(NC2CCCC(F)(F)C2)=N/C1=C\c1ccc2ncsc2c1` (racemic): the pIC50 in assay [1] is 6.49; in [2], 5.07; in [3], 7.62; in assay [4], 5.25; in [5] it was 6.53; in assay [6] it was 6.41. Moreover, the pIC50 is 5.62 in assay [7] and 6.76 in assay [8].
Turning to `O=C1NC(NC(CF)c2ccccc2)=N/C1=C\c1ccc2ncsc2c1` (racemic), the pIC50 was 6.34 in assay [1]; less than 5.00 in assay [2]; 7.89 in assay [3]; 6.02 in assay [4]; 6.32 in [5]; 6.28 in [6]. Besides, the values for the negative logarithm of the IC50 (pIC50) in assay [7] and in assay [8] were less than 5.00 and 6.53, respectively.
`O=C1NC(N[C@@H]2c3ccccc3C[C@H]2O)=N/C1=C\c1ccc2ncsc2c1`: the pIC50 in assay [1] is 6.74; in assay [2], less than 5.00; in assay [4], less than 5.00; in [9], 7.96; in assay [6], 6.41; in assay [7] it was less than 5.00. In addition, the pIC50 in assay [8] was 5.69.
On to `O=C1NC(NC2CCCCOC2)=N/C1=C\c1ccc2ncsc2c1` (racemic), for which the pIC50 is 6.42 in [1]; less than 5.00 in [2]; 7.29 in [3]; 5.56 in assay [4]; 6.31 in [5]; 6.15 in assay [6]. Besides, the pIC50 in [7] was 5.41; in assay [8] it was 6.37.
In the case of `O=C1NC(NCC(O)Cc2ccccc2)=N/C1=C\c1ccc2ncsc2c1` (racemic), the pIC50 in [1] is 6.54; in [2], less than 5.00; in [3], 7.05; in [4], 5.32; in [5], 5.93; in assay [6], 6.28. In addition, the pIC50 in assay [7] was less than 5.00; in assay [8], 6.33.
On to `O=C1NC(NCc2ccncc2)=N/C1=C\c1ccc2ncsc2c1`, for which the negative logarithm of the IC50 (pIC50) is 5.91 in assay [1]; less than 5.00 in assay [2]; 6.96 in [3]; 5.49 in assay [4]; 5.99 in [5]; 6.21 in [6]. In addition, the pIC50 in [7] is less than 5.00; in assay [8] it was 5.91.
For the compound `O=C1NC(N[C@H]2C3CC4CC2C[C@](O)(C4)C3)=N/C1=C\c1ccc2ncsc2c1`, the pIC50 in assay [1] is 6.49; in assay [2], 5.01; in [3], 7.96; in [4] it was 5.27; in assay [5] it was 6.91; in assay [6] it was 6.53. In addition, the pIC50 in [7] is 5.64; in [8], 6.20.
On to `CC1(C)CCC(NC2=N/C(=C\c3ccc4ncsc4c3)C(=O)N2)CO1` (racemic), for which the pIC50 in assay [1] was 6.24; in assay [2] it was less than 5.00; in [3], 6.99; in assay [4] it was 5.32; in assay [5], 6.16; in assay [6], 6.59. The pIC50 in assay [7] was less than 5.00; in [8], 6.45.
On to `O=C1NC(Nc2ccccc2)=N/C1=C\c1ccc2c(c1)OCO2`, for which the pIC50 in [4] was 6.22; in assay [9] it was 7.64; in [8] it was 5.92.
In the case of `O=C1NC(NCCCn2ccnc2)=N/C1=C\c1ccc2ncsc2c1`, the pIC50 in [2] is less than 5.00; in assay [4] it was 5.21; in assay [9] it was 7.92; in assay [6], 6.23; in [7], less than 5.00; in assay [8], 5.75.
